Experimental findings from PubChem BioAssay (NCI) are described below.

Holding throughout (assay): NCI tumour cell line growth inhibition, 48 h
In assay [1] the test system is 786-0 renal.
Assay [2] relates to CAKI-1 renal.
Assay [3] relates to CCRF-CEM leukemia.
For assay [4], the system named is HOP-62 NSCLC.
The subject of assay [5] is PC-3 prostate.
In assay [6] the test system is RXF 393 renal.
The test system of assay [7] is SF-539 CNS.
Assay [8] relates to SN12C renal.
Assay [9] concerns SNB-19 CNS.
In assay [10] the test system is SW-620 colon.

Several values for one entry are separate records, joined by “and”; a condition that tells them apart may be missing. Identical values can stand only once.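 Five compound concentrations were applied to cells in 96-well plates for 48 hours; endpoints were derived by simple linear interpolation of the resulting dose-response curve. GI50 marks 50% less growth. The concentration for full growth arrest is given as TGI.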

Take `CC(=O)OC1OC([C@@H]2c3cccc(O)c3C(=O)c3c(O)cc(C)cc32)C(O)C(O)C1O` (stereo not given in full): the GI50 in [1] is 0.13 µM; in assay [2], 0.0269 µM; in [3], 0.0494 µM; in [4] it was 0.0985 µM; in [5], less than 0.01 µM; in assay [6], 0.35 µM. Also, the GI50 was 0.0419 µM in assay [7], less than 0.0179 µM in assay [8], 0.392 µM in [9] and 0.0231 µM in assay [10]. The TGI in [1] was 1.27 µM; in [2], 0.241 µM; in assay [3], 1.63 µM; in assay [4], 0.995 µM; in assay [6], 1.58 µM; in assay [7], 1.47 µM. Also, the values for the TGI in [8], in [9] and in [10] were less than 0.0321 µM, 21.4 µM and 1.73 µM, respectively.

`O=C(Nc1ccccc1)c1c(O)[nH]c(=S)[nH]c1=O`: the TGI is 92.1 µM in assay [1]; 58.1 µM and 127 µM in assay [2]; 83.3 µM and > 250 µM in assay [3]; 82.5 µM and > 250 µM in assay [4]; 85.2 µM in assay [5]; 96.3 µM and 68.9 µM in [6]. Besides, the TGI is 87.1 µM and > 250 µM in assay [7]; 112 µM in assay [8]; 118 µM and > 250 µM in assay [9]; 97.7 µM and > 250 µM in [10]. Moreover, the GI50 in [2] was 28 µM; in assay [3], 71.2 µM; in assay [4] it was 73.2 µM; in assay [7] it was 102 µM; in [9] it was 40.7 µM; in [10], 74.4 µM.

`Cc1cnc(NCCCN(C)C)c2c1[nH]c1ccc3cc(O)ccc3c12`: the TGI stood at 1.84 µM in assay [1]; 4.18 µM in assay [2]; 5.88 µM in assay [3]; 1.86 µM in assay [4]; 2.21 µM in assay [5]; 2.16 µM in [6]. Moreover, the TGI in assay [7] was found to be 1.64 µM; in [8], 1.78 µM; in assay [9], 3.12 µM; in assay [10], 1.97 µM.

Take `CN1CCCCC1CCN1c2ccccc2Sc2ccc(Cl)cc21` (stereo not given): the GI50 in assay [1] is 3.85 µM; in [2] it was 3.63 µM; in assay [3], 3.81 µM; in assay [4], 10.1 µM; in [5] it was 3.22 µM; in assay [6] it was 3.18 µM. Besides, the GI50 in [7] is 2.29 µM; in assay [8], 3.65 µM; in [9], 6.7 µM; in assay [10], 2.87 µM. The TGI in assay [1] is 14.5 µM; in assay [2], 15.8 µM; in assay [3] it was 13.5 µM; in assay [4], 24.2 µM; in [5] it was 11.7 µM; in assay [6], 8.47 µM. For the same compound, the TGI in [7] worked out at 5.42 µM; in [8] it was 13.9 µM; in [9], 21.5 µM; in assay [10] it was 10.1 µM.

Take `CCOC1Oc2ccccc2C(=O)/C1=C/Nc1ccc(C(C)=O)cc1` (stereo not given): the GI50 was 6.56 µM in [1]; 19 µM in assay [2]; 19.2 µM in assay [3]; 18.5 µM in assay [4]; 25.4 µM in assay [5]; 27 µM in assay [6]. Moreover, the GI50 is 23.9 µM in assay [7], 19.4 µM in assay [8], 42.2 µM in assay [9] and 26.7 µM in assay [10]. Further, the TGI in assay [1] stood at 25.4 µM; in [2], 45.3 µM; in [3], 62.2 µM; in assay [4] it was 40 µM; in assay [5], 93.3 µM; in [6], 72.6 µM. The TGI was 56.6 µM in [7], 47.8 µM in assay [8], greater than 100 µM in assay [9] and 72.6 µM in [10].

Regarding `C[C@@H](Oc1cc(-n2cnc3ccc(CN4CCN(C)CC4)cc32)sc1C(N)=O)c1ccccc1C(F)(F)F`, the GI50 in assay [1] is 0.0439 µM and 0.0854 µM; in assay [2] it was 0.337 µM and 0.222 µM; in assay [3], < 0.01 µM and 0.0149 µM; in [4], 0.0118 µM and 0.0199 µM; in assay [5], < 0.0192 µM and 0.0293 µM; in assay [6] it was < 0.0141 µM and 0.0224 µM. For the same compound, the GI50 in [7] is 0.0369 µM and 0.0302 µM; in assay [8] it was 0.116 µM and 0.2 µM; in assay [9], 0.0233 µM and 0.0162 µM; in assay [10], < 0.01 µM and 0.00462 µM. The TGI was 2.04 µM and > 7.11 µM in assay [1]; 15.1 µM and > 10 µM in assay [2]; 4.24 µM and > 2.07 µM in assay [3]; 12.7 µM and > 10 µM in assay [4]; 15.5 µM and > 10 µM in assay [5]; 10.2 µM and > 10 µM in assay [6]. Besides, the TGI in [7] was 2.09 µM; in [8] it was 12.1 µM and > 10 µM; in [9], 15.4 µM and > 10 µM; in assay [10], 12.9 µM and > 10 µM.

In the case of `Nc1c(C(=O)c2cccc(CCS(N)(=O)=O)c2)cnn1-c1ccc(F)cc1`, the GI50 in [1], in assay [2], in [3], in [4], in [5] and in assay [6] was greater than 25 µM throughout. In addition, the GI50 in assay [7], in assay [8], in assay [9] and in assay [10] was greater than 25 µM each time. For the same compound, the TGI in assay [1], in [2], in assay [3], in assay [4], in [5] and in assay [6] was greater than 25 µM in each case. Further, the TGI in assay [7], in [8], in [9] and in assay [10] was greater than 25 µM throughout.
